Reference: US20120255051A1, “HERBICIDE TOLERANT PLANTS” (priority 2009, published 2012)
“And” between values parts separate entries of the source, which are not always exact repeats. Equal values may be shown once.

System: Brassica plants comprising mutant AHAS alleles
Assay: Field trial, pre-planting treatment (0, 10, 20, 30 g a.i./ha), two locations in Canada: ERG, EST1, EST2, PPTOX, VIG1, VIG2, VIG3 scores
Type: in vivo, Brassica napus
Conditions: for vigor3 (VIG3) score, Av: Elite parent line plants
Description: Tests were set up and conducted to asses the growth and performance of plants comprising AHAS full knock-out alleles, and to further analyze the correlation between the presence of full knockout and missense AHAS genes in Brassica plants and plant growth and herbicide tolerance of the Brassica plants in the field. To this end, the Brassica plants identified in Example 1 and 2 were backcrossed two times with an elite parent line, and subsequently selfed twice to obtain homozygous plants (BC2S2). Plants were grown as row plots in a split plot design with three replicates (main plots=herbicide treatments, subplots=genotypes) at two locations in Canada. Treatment pre-planting was carried out on the soil about two days before sowing with a dose of 0 (treatment A), 10 (treatment B), 20 (treatment C) or 30 (treatment D) g a.i./ha of thiencarbazone methyl. Herbicide tolerance was measured by scoring for different parameters. The parameter emergence (ERG) was scored at the cotyledon stage on a scale 1-9, where 1 means late emergence and 9 means early emergence. Establishment was scored 14 days after sowing (EST1) and 21 days after sowing (EST2). Scores were from 1 to 9, where 1 is the worst establishment (least plants that emerged), and 9 is the best establishment (most plants emerged). Phytotoxicity (PPTOX) was determined after establishment. Plants were evaluated on a scale of 1 to 9, where 1=completely yellowing, 5=50% of plant is yellow and 9=no yellowing. The vigor scores (see above) were determined at 1-2 leaf stage (VIG1), 7 days after VIG1 (VIG2) and 14 days after VIG1 (VIG3). The average values (Av) and standard deviations (SD) of the scores for the different parameters are represented in Table 7a-g.
Further, the contribution of the knock-out allele to herbicide tolerance conferred by the missense allele was calculated. First, the scores were corrected for a possible effect of the growth per se, independent of herbicide treatment. To this end, the scores for treatments B, C and D were divided by the scores for treatment A for the same genotype and for the same parameter (corrected herbicide tolerance scores). Next, the effect of the knock-out allele to these corrected herbicide tolerance scores obtained by the missense allele was calculated. Therefore, the corrected herbicide tolerance scores for the missense—knock-out allele combination was divided by the corrected herbicide tolerance scores for the missense allele—wild-type combination. In case the knock-out allele has no effect on herbicide tolerance conferred by the missense allele, this ratio should be 1. In case the knock-out allele positively contributes to the herbicide tolerance conferred by the missense allele, this ratio should be higher than 1. The results for the contribution of the knock-out allele to herbicide tolerance conferred by the missense allele as calculated above are shown in table 8.

[1] = AHAS1 WT/AHAS3 HETO104, 10 g a.i./ha pre-planting (B), Location A
[2] = AHAS1 WT/AHAS3 HETO104, 10 g a.i./ha pre-planting (B), Location B
[3] = AHAS1 WT/AHAS3 HETO104, 20 g a.i./ha pre-planting (C), Location A
[4] = AHAS1 WT/AHAS3 HETO104, 20 g a.i./ha pre-planting (C), Location B
[5] = AHAS1 WT/AHAS3 HETO104, 30 g a.i./ha pre-planting (D), Location A
[6] = AHAS1 WT/AHAS3 HETO104, 30 g a.i./ha pre-planting (D), Location B
[7] = AHAS1 WT/AHAS3 HETO111, 10 g a.i./ha pre-planting (B), Location A
[8] = AHAS1 WT/AHAS3 HETO111, 10 g a.i./ha pre-planting (B), Location B
[9] = AHAS1 WT/AHAS3 HETO111, 20 g a.i./ha pre-planting (C), Location A
[10] = AHAS1 WT/AHAS3 HETO111, 20 g a.i./ha pre-planting (C), Location B
[11] = AHAS1 WT/AHAS3 HETO111, 30 g a.i./ha pre-planting (D), Location A
[12] = AHAS1 WT/AHAS3 HETO111, 30 g a.i./ha pre-planting (D), Location B
[13] = AHAS1 WT/AHAS3 WT, 10 g a.i./ha pre-planting (B), Location A
[14] = AHAS1 WT/AHAS3 WT, 10 g a.i./ha pre-planting (B), Location B
[15] = AHAS1 WT/AHAS3 WT, 20 g a.i./ha pre-planting (C), Location A
[16] = AHAS1 WT/AHAS3 WT, 20 g a.i./ha pre-planting (C), Location B
[17] = AHAS1 WT/AHAS3 WT, 30 g a.i./ha pre-planting (D), Location A
[18] = AHAS1 WT/AHAS3 WT, 30 g a.i./ha pre-planting (D), Location B
[19] = Elite parent line, 10 g a.i./ha pre-planting (B), Location A
[20] = Elite parent line, 10 g a.i./ha pre-planting (B), Location B
[21] = Elite parent line, 20 g a.i./ha pre-planting (C), Location A
[22] = Elite parent line, 20 g a.i./ha pre-planting (C), Location B
[23] = Elite parent line, 30 g a.i./ha pre-planting (D), Location A
[24] = Elite parent line, 30 g a.i./ha pre-planting (D), Location B
[25] = Elite parent line, treatment B 10 g a.i./ha pre-planting, Location A
[26] = Elite parent line, treatment B 10 g a.i./ha pre-planting, Location B
[27] = Elite parent line, treatment C 20 g a.i./ha pre-planting, Location A
[28] = Elite parent line, treatment C 20 g a.i./ha pre-planting, Location B
[29] = Elite parent line, treatment D 30 g a.i./ha pre-planting, Location A
[30] = Elite parent line, treatment D 30 g a.i./ha pre-planting, Location B
[31] = Location A, treatment B 10 g a.i./ha pre-planting, ratio >1 = positive contribution

SMILES: COC(=O)c1csc(C)c1S(=O)(=O)NC(=O)n1nc(OC)n(C)c1=O [thiencarbazone-methyl, methyl 4-[(4,5-dihydro-3-methoxy-4-methyl-5-oxo-1H-1,2,4-triazol-1-yl)carbonylsulfamoyl]-5-methylthiophene-3-carboxylate]
- phytotoxicity (PPTOX) score, Av [1]: 1.33
- vigor1 (VIG1) score, Av [1]: 1.33
- vigor2 (VIG2) score, Av [1]: 1.00
- establishment (EST2) score, Av [2]: 3.33
- phytotoxicity (PPTOX) score, Av [2]: 1.33
- vigor2 (VIG2) score, Av [2]: 1.33
- establishment (EST2) score, Av [3]: 1.00
- phytotoxicity (PPTOX) score, Av [3]: 1.00
- vigor1 (VIG1) score, Av [3]: 1.00
- vigor2 (VIG2) score, Av [3]: 1.00
- establishment (EST2) score, Av [4]: 2.33
- phytotoxicity (PPTOX) score, Av [4]: 1.00
- vigor1 (VIG1) score, Av [4]: 1.33
- vigor2 (VIG2) score, Av [4]: 1.00
- establishment (EST2) score, Av [5]: 1.00
- phytotoxicity (PPTOX) score, Av [5]: 1.00
- vigor1 (VIG1) score, Av [5]: 1.00
- vigor2 (VIG2) score, Av [5]: 1.00
- establishment (EST2) score, Av [6]: 1.00
- phytotoxicity (PPTOX) score, Av [6]: 1.00
- vigor1 (VIG1) score, Av [6]: 1.00
- vigor2 (VIG2) score, Av [6]: 1.00
- establishment (EST2) score, Av [7]: 5.33 and 5.67
- vigor1 (VIG1) score, Av [7]: 6.00
- vigor2 (VIG2) score, Av [7]: 7.00
- phytotoxicity (PPTOX) score, Av [8]: 6.00 and 6.33
- vigor1 (VIG1) score, Av [8]: 6.33 and 6.00
- vigor2 (VIG2) score, Av [8]: 7.00
- establishment (EST2) score, Av [9]: 4.67
- phytotoxicity (PPTOX) score, Av [9]: 5.00
- vigor1 (VIG1) score, Av [9]: 5.00
- vigor2 (VIG2) score, Av [9]: 6.33
- establishment (EST2) score, Av [10]: 4.67
- vigor1 (VIG1) score, Av [10]: 5.00
- vigor2 (VIG2) score, Av [10]: 6.00 and 5.67
- establishment (EST2) score, Av [11]: 5.00
- phytotoxicity (PPTOX) score, Av [11]: 5.00
- vigor1 (VIG1) score, Av [11]: 5.00
- vigor2 (VIG2) score, Av [11]: 5.67 and 5.33
- phytotoxicity (PPTOX) score, Av [12]: 4.00
- vigor1 (VIG1) score, Av [12]: 3.67
- vigor2 (VIG2) score, Av [12]: 4.33 and 5.00
- establishment (EST2) score, Av [13]: 1.00 and 2.00
- phytotoxicity (PPTOX) score, Av [13]: 1.00
- vigor1 (VIG1) score, Av [13]: 1.00 and 1.33
- vigor2 (VIG2) score, Av [13]: 1.00
- establishment (EST2) score, Av [14]: 4.33 and 5.00
- phytotoxicity (PPTOX) score, Av [14]: 1.33 and 1.67 and 2.33
- vigor1 (VIG1) score, Av [14]: 3.00
- vigor2 (VIG2) score, Av [14]: 1.67 and 2.00
- establishment (EST2) score, Av [15]: 1.00
- phytotoxicity (PPTOX) score, Av [15]: 1.00
- vigor1 (VIG1) score, Av [15]: 1.00
- vigor2 (VIG2) score, Av [15]: 1.00
- establishment (EST2) score, Av [16]: 3.67 and 4.00 and 3.00
- phytotoxicity (PPTOX) score, Av [16]: 1.00 and 1.33
- vigor1 (VIG1) score, Av [16]: 1.33
- vigor2 (VIG2) score, Av [16]: 1.33 and 1.67
- establishment (EST2) score, Av [17]: 1.00
- phytotoxicity (PPTOX) score, Av [17]: 1.00
- vigor1 (VIG1) score, Av [17]: 1.00
- vigor2 (VIG2) score, Av [17]: 1.00
- establishment (EST2) score, Av [18]: 1.33 and 2.00
- phytotoxicity (PPTOX) score, Av [18]: 1.00 and 2.00
- vigor1 (VIG1) score, Av [18]: 1.33
- vigor2 (VIG2) score, Av [18]: 1.33 and 1.00
- vigor3 (VIG3) score, Av (10 g a.i./ha (treatment B) pre-planting, Location A): 1.00
- vigor3 (VIG3) score, Av (10 g a.i./ha (treatment B) pre-planting, Location B): 3.67
- vigor3 (VIG3) score, Av (20 g a.i./ha (treatment C) pre-planting, Location A): 1.00
- vigor3 (VIG3) score, Av (20 g a.i./ha (treatment C) pre-planting, Location B): 1.00
- vigor3 (VIG3) score, Av (30 g a.i./ha (treatment D) pre-planting, Location A): 1.00
- vigor3 (VIG3) score, Av (30 g a.i./ha (treatment D) pre-planting, Location B): 1.00
- establishment (EST2) score, Av [19]: 2.00
- phytotoxicity (PPTOX) score, Av [19]: 1.00
- vigor1 (VIG1) score, Av [19]: 1.00
- vigor2 (VIG2) score, Av [19]: 1.00
- establishment (EST2) score, Av [20]: 6.00
- phytotoxicity (PPTOX) score, Av [20]: 3.67
- vigor1 (VIG1) score, Av [20]: 4.00
- vigor2 (VIG2) score, Av [20]: 4.00
- establishment (EST2) score, Av [21]: 2.33
- phytotoxicity (PPTOX) score, Av [21]: 1.00
- vigor1 (VIG1) score, Av [21]: 1.33
- vigor2 (VIG2) score, Av [21]: 1.00
- establishment (EST2) score, Av [22]: 4.67
- phytotoxicity (PPTOX) score, Av [22]: 1.67
- vigor1 (VIG1) score, Av [22]: 2.00
- vigor2 (VIG2) score, Av [22]: 2.00
- establishment (EST2) score, Av [23]: 2.00
- phytotoxicity (PPTOX) score, Av [23]: 1.00
- vigor1 (VIG1) score, Av [23]: 1.00
- vigor2 (VIG2) score, Av [23]: 1.00
- establishment (EST2) score, Av [24]: 4.00
- phytotoxicity (PPTOX) score, Av [24]: 1.00
- vigor1 (VIG1) score, Av [24]: 1.33
- vigor2 (VIG2) score, Av [24]: 1.00
- emergence (ERG) score Av [25]: 2.00
- establishment (EST1) score Av, 14 days after sowing [25]: 2.00
- emergence (ERG) score Av [26]: 5.00
- establishment (EST1) score Av, 14 days after sowing [26]: 6.67
- emergence (ERG) score Av [27]: 2.33
- establishment (EST1) score Av, 14 days after sowing [27]: 2.33
- emergence (ERG) score Av [28]: 4.33
- establishment (EST1) score Av, 14 days after sowing [28]: 4.67
- emergence (ERG) score Av [29]: 2.00
- establishment (EST1) score Av, 14 days after sowing [29]: 2.00
- emergence (ERG) score Av [30]: 3.00
- establishment (EST1) score Av, 14 days after sowing [30]: 4.00
- relative contribution of HETO104 (AHAS3 KO) to herbicide tolerance conferred by HETO108 (AHAS1 missense): ERG [31]: 0.86
- relative contribution of HETO104 (AHAS3 KO) to herbicide tolerance conferred by HETO108 (AHAS1 missense): EST1 [31]: 0.91
- relative contribution of HETO104 (AHAS3 KO) to herbicide tolerance conferred by HETO108 (AHAS1 missense): EST2 [31]: 0.95
- relative contribution of HETO104 (AHAS3 KO) to herbicide tolerance conferred by HETO108 (AHAS1 missense): PPTOX [31]: 0.83
- relative contribution of HETO104 (AHAS3 KO) to herbicide tolerance conferred by HETO108 (AHAS1 missense): VIG1 [31]: 0.90
- relative contribution of HETO104 (AHAS3 KO) to herbicide tolerance conferred by HETO108 (AHAS1 missense): VIG2 [31]: 0.88
- relative contribution of HETO104 (AHAS3 KO) to herbicide tolerance conferred by HETO108 (AHAS1 missense): VIG3 [31]: 0.96
- relative contribution of HETO112 (AHAS1 KO) to herbicide tolerance conferred by HETO111 (AHAS3 missense): ERG [31]: 0.85
- relative contribution of HETO112 (AHAS1 KO) to herbicide tolerance conferred by HETO111 (AHAS3 missense): EST1 [31]: 0.92
- relative contribution of HETO112 (AHAS1 KO) to herbicide tolerance conferred by HETO111 (AHAS3 missense): EST2 [31]: 1.04
- relative contribution of HETO112 (AHAS1 KO) to herbicide tolerance conferred by HETO111 (AHAS3 missense): PPTOX [31]: 1.06
- relative contribution of HETO112 (AHAS1 KO) to herbicide tolerance conferred by HETO111 (AHAS3 missense): VIG1 [31]: 1.10
